Measured values taken from patent US20260083769A1, “2-Aminopropane-1,3-Diol-Capped Cationic Peptoids for Nucleic Acid Delivery” (NUTCRACKER THERAPEUTICS, INC., priority 2022, published 2026).
Entries after “also recorded” stand apart in the source; their conditions may differ. Where a SMILES comes first, the peptide text is derived from it. [ ]: non-standard residue; d: D form. N(2-ethylhexyl)Gly = CCCCC(CC)CNCC(=O)O; Gly(N-dodecyl) = CCCCCCCCCCCCNCC(=O)O; N(CH(CH2OH)2)Gly = O=C(O)CNC(CO)CO; NHexGly = CCCCCCNCC(=O)O

Tests used:
[1] = tested on: BALB/c mice; experiment: In vivo fLuc mRNA expression after IV dose, whole body and organ bioluminescence; conditions: for luciferase expression in vivo, comparison of monomer order isomers: Compound 31 versus Compound 41; for fLuc (luciferase) expression in vivo: BALB/c mice, IV, luminescence 6 hours after dose, lipid block screen
From the text: In one particular instance, peptoids disclosed herein were formulated into delivery vehicles by first dissolving in ethanol along with DSPC, cholesterol, and DMG-PEG2000 at weight ratio of 20:1.8:7.2:1.8 (Formulation D22 in Table 3, above), then mixed with firefly luciferase (fLuc) mRNA dissolved in an aqueous buffer at a volume ratio of 1:3 via microfluidic nanoprecipitation on a turbulent mixing device, resulting in small, low dispersity particles. Physical particle properties were characterized. Delivery vehicles with initial sizes larger than 120 nm were not brought forward into in vivo screening as liver fenestrae primarily accommodate LNPs sized under 100 nm. In vivo expression of delivery vehicles comprising peptoids with varied headgroups was evaluated using fLuc expression in BALB/c mice 6 hours after IV dose (FIG. 1). […] The aminoethyl and aminopropyl headgroups both show preferential expression in lung (FIG. 2), potentially due to the high basicity of the pendant primary amine, as groups with higher pKas are known to accumulate in that organ. […] While spleen and lung selectivity merit further optimization for future therapeutic applications, liver-selective targets were used for further studies herein to prepare for systemic delivery of antibody targets and maximize their serum expression with anti-RSV cargo.
Intravenous administration. The delivery vehicle complexes disclosed herein are effective for in vivo administration of Fluc mRNA to BALB/c mice through multiple routes of administration. In general, delivery system complexes were administered at a dose of 0.5 mg/kg via a tail-vein injection, and the resulting bioluminescence was quantified after 6 hours. Organ-specific bioluminescence was quantified by sacrificing the treated animal, dissecting out the organs of interest, and separately quantifying the resulting bioluminescence
In one particular instance, to investigate how the peptoid lipid block impacts in vivo expression, delivery vehicles with diameter larger than 120 nm were excluded and remaining candidates were administered IV to BALB/c mice. Luminescence was measured after 6 hours and the resulting expression in liver, lung and spleen were quantified. Even without changing the cationic headgroup, luciferase expression spanned 4 orders of magnitude as a result of altering the lipid block in this series. […] In vivo expression of all candidates was then fit to a multi-parameter model containing the 4 input parameters to understand the individual contributions of each factor to overall performance. […] Contour plots of the impact of these factors on expression (all using Ehx as the branched/unsaturated monomer) are shown in FIG. 4.
For imaging studies, female BALB/c mice (6-8 weeks old) were obtained and acclimatized for a minimum of 3 days prior to experiments. The animals were maintained on a 12 hour light cycle in a temperature and humidity controlled room. A daily health check was performed as well as food and water check. For dosing, mice were injected with 2.5 μg fLuc mRNA-containing delivery vehicles intravenously in 100 μL total injection volume. At 6 hours post-injection, mice were anesthetized with isoflurane, and injected intraperitoneally with 30 mg/mL D-luciferin at a dose of 10 μL per gram bodyweight intraperitoneally. Imaging was done 10 minutes post D-luciferin injection using an IVIS® Spectrum Imaging System. Immediately after in vivo imaging, mice were terminally bled by cardiac puncture and euthanized. The organs of interest were harvested, placed in black 24-well plates, and imaged. Living Image® software was used to quantify the total photon flux in regions of interest. For secreted protein studies, mice were injected with aRSV mRNA-containing delivery vehicles intravenously in 100 μL total injection volume. Mice were euthanized after 24 hours, with serum collection at 6 and 24 hours post-injection. […]

[2] = Apparent particle pKa, TNS fluorescence assay; type: physicochemical; conditions: Table 5; apparent particle pKa of delivery vehicle
Protocol: The apparent particle pKa was assessed by a TNS fluorescence assay. Briefly, particles were diluted to 130 uM total lipid in TNS buffer ranging in pH 3-11 for 10 minutes with […] of TNS probe. The fluorescence was measured at room temperature in a plate reader ex 320/em 445. Fluorescence intensity was normalized to the minimal and maximal values and the pKa was determined by a 3 parameter fit to determine the half maximum of the curve.

[3] = Zeta potential of delivery vehicles; type: physicochemical; conditions: Table 5; delivery vehicle, pH 7 buffer; in mV (unit assumed)
[4] = tested on: BALB/c mice; experiment: Serum anti-RSV antibody (aRSV) after IV dose of aRSV mRNA delivery vehicles, IgG ELISA; type: in vivo; conditions: for secreted protein (serum aRSV) expression in vivo, comparison of monomer order isomers: Compound 31 versus Compound 41; for serum levels of aRSV (secreted protein expression): BALB/c mice, IV, 0.75 mg/kg mRNA, after 24 hours, IgG ELISA
Protocol: For imaging studies, female BALB/c mice (6-8 weeks old) were obtained and acclimatized for a minimum of 3 days prior to experiments. The animals were maintained on a 12 hour light cycle in a temperature and humidity controlled room. A daily health check was performed as well as food and water check. For dosing, mice were injected with 2.5 μg fLuc mRNA-containing delivery vehicles intravenously in 100 μL total injection volume. At 6 hours post-injection, mice were anesthetized with isoflurane, and injected intraperitoneally with 30 mg/mL D-luciferin at a dose of 10 μL per gram bodyweight intraperitoneally. Imaging was done 10 minutes post D-luciferin injection using an IVIS® Spectrum Imaging System. Immediately after in vivo imaging, mice were terminally bled by cardiac puncture and euthanized. The organs of interest were harvested, placed in black 24-well plates, and imaged. Living Image® software was used to quantify the total photon flux in regions of interest. For secreted protein studies, mice were injected with aRSV mRNA-containing delivery vehicles intravenously in 100 μL total injection volume. Mice were euthanized after 24 hours, with serum collection at 6 and 24 hours post-injection. Serum was used to quantify secreted aRSV levels using ELISA following the manufacturer's recommendation for IgG using a standard curve generated from aRSV protein.
To understand how the delivery vehicles disclosed herein (e.g., delivery vehicles comprising compounds of Formula (I)) performed as systemic delivery vehicles, the top four candidates for firefly luciferase expression from the optimized DOE model (Compounds 12, 41, 34, and 35) were evaluated for their ability to produce anti-RSV antibody in BALB/c mice. Anti-RSV was chosen as a model target due to the availability of therapeutic benchmarking information and sequence availability. Delivery vehicles comprising aRSV were formulated from two mRNA molecules encoding the heavy and light chain at a 2:1 mass ratio. All delivery vehicles were below 120 nm in size with encapsulation greater than 85% (Table 7).
Delivery vehicles were dosed intravenously in BALB/c mice at a total dose of 0.75 mg/kg mRNA and serum levels of aRSV were compared after 24 hours by an IgG ELISA.

CCCCCCCCCCCCN(CC(=O)N(CC(=O)N(CC(=O)N(CCCCCCCCCCCC)CC(=O)N(CC(=O)N(CC(N)=O)CC(CC)CCCC)CC(CC)CCCC)CC(CC)CCCC)CC(CC)CCCC)C(=O)CNC(CO)CO (centres unmarked) [Compound 31] (H-[N(CH(CH2OH)2)Gly][Gly(N-dodecyl)][N(2-ethylhexyl)Gly][N(2-ethylhexyl)Gly][Gly(N-dodecyl)][N(2-ethylhexyl)Gly][N(2-ethylhexyl)Gly]-NH2)
luciferase expression in vivo, comparison of monomer order isomers [1]: within error
pKa (TNS) [2]: 6.523
Zeta Potential [3]: −11.2
secreted protein (serum aRSV) expression in vivo, comparison of monomer order isomers [4]: within error

CCCCCCCCCCCCN(CC(=O)N(CC(=O)N(CC(=O)N(CCCCCCCCCCCC)CC(=O)N(CC(N)=O)CC(CC)CCCC)CC(CC)CCCC)CC(CC)CCCC)C(=O)CN(CC(CC)CCCC)C(=O)CNC(CO)CO (centres unmarked) [Compound 41] (H-[N(CH(CH2OH)2)Gly][N(2-ethylhexyl)Gly][Gly(N-dodecyl)][N(2-ethylhexyl)Gly][N(2-ethylhexyl)Gly][Gly(N-dodecyl)][N(2-ethylhexyl)Gly]-NH2)
fLuc (luciferase) expression in vivo [1]: top expressers
luciferase expression in vivo, comparison of monomer order isomers [1]: within error
pKa (TNS) [2]: 6.068
Zeta Potential [3]: −5.38
serum levels of aRSV (secreted protein expression) ([4]; 0.75 mg/kg): highest levels of secreted protein expression; also recorded: highest overall aRSV titers
secreted protein (serum aRSV) expression in vivo, comparison of monomer order isomers [4]: within error
dependence of serum aRSV titers on injected dose ([4]; Compound 41 in Formulation D22, 0.3, 0.75, and 1.5 mg/kg): generally linear dependence on injected dose
time aRSV titers were observed in the serum ([4]; Compound 41 in Formulation D22, mice, post-dosing): > 5 days

CCCCCCN(CC(N)=O)C(=O)CN(CC(CC)CCCC)C(=O)CN(CC(CC)CCCC)C(=O)CN(CCCCCC)C(=O)CN(CC(CC)CCCC)C(=O)CN(CC(CC)CCCC)C(=O)CNC(CO)CO (centres unmarked) [Compound 12] (H-[N(CH(CH2OH)2)Gly][N(2-ethylhexyl)Gly][N(2-ethylhexyl)Gly][NHexGly][N(2-ethylhexyl)Gly][N(2-ethylhexyl)Gly][NHexGly]-NH2)
fLuc (luciferase) expression in vivo [1]: top expressers; also recorded: highest overall fLuc expression
pKa (TNS) [2]: 6.018
Zeta Potential [3]: −8.68
serum levels of aRSV (secreted protein expression) [4]: lowest aRSV expression of the top 4 candidates

CCCCCCCCCCCCN(CC(=O)N(CC(N)=O)CC(CC)CCCC)C(=O)CN(CCCCCC)C(=O)CN(CC(CC)CCCC)C(=O)CN(CCCCCCCCCCCC)C(=O)CN(CCCCCC)C(=O)CNC(CO)CO (centres unmarked) [Compound 34] (H-[N(CH(CH2OH)2)Gly][NHexGly][Gly(N-dodecyl)][N(2-ethylhexyl)Gly][NHexGly][Gly(N-dodecyl)][N(2-ethylhexyl)Gly]-NH2)
fLuc (luciferase) expression in vivo [1]: top expressers
pKa (TNS) [2]: 6.374
Zeta Potential [3]: −9.58
serum levels of aRSV (secreted protein expression) [4]: highest levels of secreted protein expression
